Measurements taken from ChEMBL document CHEMBL1201862, “PubChem BioAssay data set” (2004).
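The compound was tested at five concentrations on cells cultured in 96-well plates, with a 48-hour exposure period. GI50 = concentration required for 50% inhibition of growth.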 The source made the active and inactive calls. Cut-off read from the data, not from the text of the source: active = GI50 up to about 1.1 µM and inactive = higher.

Columns and labels:
Experiment in all cases: inhibition of tumour cell growth, NCI panel, 48 h
U-251 = test system: U-251
EKVX = test system: EKVX
DMS-273 = test system: DMS-273
SW-620 = test system: SW-620
SK-MEL-5 = test system: SK-MEL-5
HT-29 = test system: HT-29
RXF 393 = test system: RXF 393
HCC 2998 = test system: HCC 2998
NCI-H226 = test system: NCI-H226
IGROV-1 = test system: IGROV-1
NCI-H522 = test system: NCI-H522
SNB-19 = test system: SNB-19
OVCAR-8 = test system: OVCAR-8
NCI-H23 = test system: NCI-H23
RPMI-8226 = test system: RPMI-8226
SK-OV-3 = test system: SK-OV-3
NCI-H460 = test system: NCI-H460
MDA-MB-435 = test system: MDA-MB-435
Hs-578T = test system: Hs-578T
DU-145 = test system: DU-145

In the case of `CCOC(=O)C1Cc2ccc3c4c(ccc(c24)C1)CC(C(=O)OCC)C3`, the GI50 (U-251) is reported as > 100 µM (inactive), the GI50 (EKVX) is reported as > 100 µM (inactive) and the GI50 (DMS-273) is reported as > 100 µM (inactive). For the same compound, the GI50 (SW-620) was > 100 µM (inactive), the GI50 (SK-MEL-5) was > 100 µM (inactive) and the GI50 (HT-29) was > 100 µM (inactive). For the same compound, the GI50 (RXF 393) was > 100 µM (inactive), the GI50 (HCC 2998) was > 100 µM (inactive) and the GI50 (NCI-H226) was > 100 µM (inactive). For the same compound, the GI50 (IGROV-1) was > 100 µM (inactive), the GI50 (NCI-H522) was > 100 µM (inactive) and the GI50 (SNB-19) was > 100 µM (inactive). For the same compound, the GI50 (OVCAR-8) was > 100 µM (inactive), the GI50 (NCI-H23) was > 100 µM (inactive) and the GI50 (RPMI-8226) was > 100 µM (inactive). The GI50 (SK-OV-3) was > 100 µM (inactive).

For `COc1cc2c(cc1OC)C1(c3ccccc3)ON=C(c3ccccc3)N1CS2` (stereo not drawn), the GI50 (U-251) was > 100 µM (inactive), the GI50 (EKVX) was > 100 µM (inactive) and the GI50 (DMS-273) was > 100 µM (inactive). For the same compound, the GI50 (SW-620) was > 100 µM (inactive), the GI50 (NCI-H460) was > 100 µM (inactive) and the GI50 (SK-MEL-5) was > 100 µM (inactive). For the same compound, the GI50 (HT-29) was 55.2 µM (inactive), the GI50 (RXF 393) was 63 µM (inactive) and the GI50 (HCC 2998) was > 100 µM (inactive). The GI50 (NCI-H226) was > 100 µM (inactive), the GI50 (IGROV-1) was > 100 µM (inactive) and the GI50 (NCI-H522) was > 100 µM (inactive). The GI50 (SNB-19) was > 100 µM (inactive), the GI50 (NCI-H23) was > 100 µM (inactive) and the GI50 (RPMI-8226) was 67.6 µM (inactive). The GI50 (SK-OV-3) was > 100 µM (inactive).

For `CC1=C(SC#N)S(=O)(=O)N(c2ccccc2)C(C)=C1SC#N`, the GI50 (U-251) was 16.9 µM (inactive), the GI50 (DMS-273) was 50.5 µM (inactive) and the GI50 (SW-620) was 41.8 µM (inactive). For the same compound, the GI50 (NCI-H460) was 32.8 µM (inactive), the GI50 (SK-MEL-5) was 42 µM (inactive) and the GI50 (HT-29) was > 100 µM (inactive). For the same compound, the GI50 (RXF 393) was 21.8 µM (inactive), the GI50 (HCC 2998) was > 100 µM (inactive) and the GI50 (NCI-H226) was 36.2 µM (inactive). For the same compound, the GI50 (IGROV-1) was 6.56 µM (inactive), the GI50 (NCI-H522) was 18 µM (inactive) and the GI50 (SNB-19) was 25.1 µM (inactive). The GI50 (OVCAR-8) was 15.1 µM (inactive), the GI50 (NCI-H23) was 48.2 µM (inactive) and the GI50 (RPMI-8226) was 28.5 µM (inactive). For the same compound, the GI50 (SK-OV-3) was 38.2 µM (inactive).

For `O=C(Nc1ccc(Sc2ccc(/N=N/c3c(O)c(S(=O)(=O)O)cc4cc(S(=O)(=O)O)ccc34)cc2)cc1)c1ccc(/N=N/c2c(O)ccc3c(S(=O)(=O)O)cc(S(=O)(=O)O)cc23)cc1`, the GI50 (U-251) was 41.2 µM (inactive), the GI50 (EKVX) was 17.3 µM (inactive) and the GI50 (DMS-273) was 25.9 µM (inactive). For the same compound, the GI50 (SW-620) was 38.5 µM (inactive), the GI50 (NCI-H460) was 28.1 µM (inactive) and the GI50 (SK-MEL-5) was 7.5 µM (inactive). For the same compound, the GI50 (HT-29) was 42.1 µM (inactive), the GI50 (RXF 393) was 50.6 µM (inactive) and the GI50 (HCC 2998) was > 100 µM (inactive). For the same compound, the GI50 (NCI-H226) was > 100 µM (inactive), the GI50 (IGROV-1) was 32.7 µM (inactive) and the GI50 (NCI-H522) was 13.4 µM (inactive). The GI50 (SNB-19) was 41.1 µM (inactive), the GI50 (OVCAR-8) was 20.8 µM (inactive) and the GI50 (NCI-H23) was 19 µM (inactive). For the same compound, the GI50 (RPMI-8226) was 10.4 µM (inactive) and the GI50 (SK-OV-3) was > 100 µM (inactive).

`Cc1cn(C2CC(O)C(CO)O2)c(=O)[nH]c1=O` (stereo not drawn) was tested, and the GI50 (U-251) was 1530 µM (inactive), the GI50 (MDA-MB-435) was 4.94 mM (inactive) and the GI50 (EKVX) was 2380 µM (inactive). For the same compound, the GI50 (Hs-578T) was 3.9 mM (inactive), the GI50 (DMS-273) was 3780 µM (inactive) and the GI50 (SW-620) was 2130 µM (inactive). The GI50 (NCI-H460) was 655 µM (inactive), the GI50 (DU-145) was > 4.45 mM (inactive) and the GI50 (SK-MEL-5) was 4450 µM (inactive). The GI50 (HT-29) was 4430 µM (inactive), the GI50 (RXF 393) was 2510 µM (inactive) and the GI50 (HCC 2998) was 3680 µM (inactive). For the same compound, the GI50 (NCI-H226) was 3780 µM (inactive), the GI50 (IGROV-1) was > 4900 µM (inactive) and the GI50 (NCI-H522) was 1690 µM (inactive). For the same compound, the GI50 (SNB-19) was 1730 µM (inactive), the GI50 (OVCAR-8) was 1590 µM (inactive) and the GI50 (NCI-H23) was 1020 µM (inactive). For the same compound, the GI50 (RPMI-8226) was 2050 µM (inactive) and the GI50 (SK-OV-3) was 2480 µM (inactive).

For `CCCCCCCCCCCCCC(=O)OC(/C=C/C(C)C)C(O)C(O)C(OC)C(=O)NC1CCCCN(C)C1=O` (stereo not drawn), the GI50 (U-251) was 6.5 µM (inactive), the GI50 (MDA-MB-435) was 0.00525 mM (inactive) and the GI50 (EKVX) was 9.06 µM (inactive). For the same compound, the GI50 (Hs-578T) was > 0.01 mM (inactive), the GI50 (DMS-273) was 0.817 µM (active) and the GI50 (SW-620) was 1.36 µM (inactive). For the same compound, the GI50 (NCI-H460) was 0.687 µM (active), the GI50 (DU-145) was > 0.01 mM (inactive) and the GI50 (SK-MEL-5) was 3.19 µM (inactive). The GI50 (HT-29) was 6.3 µM (inactive), the GI50 (RXF 393) was 1.45 µM (inactive) and the GI50 (HCC 2998) was 7.96 µM (inactive). The GI50 (NCI-H226) was 4.85 µM (inactive), the GI50 (IGROV-1) was 0.457 µM (active) and the GI50 (NCI-H522) was 8.73 µM (inactive). The GI50 (SNB-19) was 1.45 µM (inactive), the GI50 (OVCAR-8) was 5.28 µM (inactive) and the GI50 (NCI-H23) was 9.91 µM (inactive). For the same compound, the GI50 (RPMI-8226) was 2.07 µM (inactive) and the GI50 (SK-OV-3) was 4.49 µM (inactive).

With `CCCCOP1(=O)CC(C)=C(Cl)C(C)(OC)C1` (stereo not drawn) the GI50 (U-251) was > 100 µM (inactive), the GI50 (EKVX) was > 100 µM (inactive) and the GI50 (DMS-273) was > 100 µM (inactive). For the same compound, the GI50 (SW-620) was 46.7 µM (inactive), the GI50 (NCI-H460) was > 100 µM (inactive) and the GI50 (SK-MEL-5) was > 100 µM (inactive). The GI50 (HT-29) was > 100 µM (inactive), the GI50 (RXF 393) was > 100 µM (inactive) and the GI50 (HCC 2998) was > 100 µM (inactive). For the same compound, the GI50 (NCI-H226) was > 100 µM (inactive), the GI50 (IGROV-1) was > 100 µM (inactive) and the GI50 (NCI-H522) was 37.9 µM (inactive). The GI50 (SNB-19) was > 100 µM (inactive), the GI50 (OVCAR-8) was 62.2 µM (inactive) and the GI50 (NCI-H23) was > 100 µM (inactive). The GI50 (SK-OV-3) was > 100 µM (inactive).

For `COc1ccc2c(=O)c([Se]c3coc4cc(OC)ccc4c3=O)coc2c1`, the GI50 (U-251) was 42.8 µM (inactive), the GI50 (EKVX) was 46.8 µM (inactive) and the GI50 (DMS-273) was 53.2 µM (inactive). The GI50 (SW-620) was > 100 µM (inactive), the GI50 (NCI-H460) was 18.7 µM (inactive) and the GI50 (SK-MEL-5) was > 100 µM (inactive). The GI50 (HT-29) was > 100 µM (inactive), the GI50 (RXF 393) was 48.6 µM (inactive) and the GI50 (HCC 2998) was > 100 µM (inactive). For the same compound, the GI50 (NCI-H226) was 52 µM (inactive), the GI50 (IGROV-1) was 34.4 µM (inactive) and the GI50 (NCI-H522) was > 100 µM (inactive). For the same compound, the GI50 (SNB-19) was > 100 µM (inactive), the GI50 (OVCAR-8) was 41.7 µM (inactive) and the GI50 (NCI-H23) was 34.9 µM (inactive). The GI50 (RPMI-8226) was > 100 µM (inactive) and the GI50 (SK-OV-3) was > 100 µM (inactive).
